Test results reported in ChEMBL document CHEMBL2311255, “Discovery of alkenylboronic acids as neuroprotective agents affecting multiple biological targets involved in Alzheimer's disease” (Bioorg Med Chem Lett, 2013).
Active and inactive are the calls of the source. No cut-off for these calls is given here.

Legend:
SH-SY5Y [1] = test: Neuroprotective activity in human APP695-transfected SH-SY5Y cells assessed as inhibition of ROS production at 5 uM after 60 mins by DCFA-DA assay; assay type: functional, cell-based
Acetylcholinesterase = test: Inhibition of AChE (unknown origin) measured for 3 mins by Ellman colorimetric method; details: Homo sapiens
SH-SY5Y [2] = test: Neuroprotective activity in human APP695-transfected SH-SY5Y cells assessed as decrease of H2O2-induced malondialdehyde level after 16 hrs (reference value: 67.83 +/- 5.86 nmol/mg); assay type: functional
SH-SY5Y [3] = test: Neuroprotective activity in human APP695-transfected SH-SY5Y cells assessed as H2O2-induced GSH-glutathione disulfide level after 16 hrs (reference value: 6.85 +/- 0.92 nmol/mg); assay type: functional
SH-SY5Y [4] = test: Neuroprotective activity in human APP695-transfected SH-SY5Y cells assessed as inhibition of H2O2-induced decrease in glutathione level after 16 hrs (reference value: 22.95 +/- 0.59 nmol/mg); assay type: functional
[5] = Cytotoxicity against human APP695-transfected SH-SY5Y cells at 10 uM after 24 hrs by MTT assay; assay type: cell-based
SH-SY5Y [6] = test: Neuroprotective activity in human APP695-transfected SH-SY5Y cells assessed as GSH-glutathione disulfide level after 16 hrs (reference value: 4.71 +/- 0.48 nmol/mg); assay type: functional
SH-SY5Y [7] = test: Neuroprotective activity in human APP695-transfected SH-SY5Y cells assessed as decrease of malondialdehyde level after 16 hrs (reference value: 52 +/- 1.84 nmol/mg); assay type: functional
SH-SY5Y [8] = test: Neuroprotective activity in human APP695-transfected SH-SY5Y cells assessed as inhibition of H2O2-induced ROS production at 5 uM after 60 mins by DCFA-DA assay; assay type: functional; details: 1 h
Beta-secretase 1 = Beta-secretase 1 (Homo sapiens, UniProt P56817); test: Inhibition of human recombinant BACE using H-RE-(EDANS)EVNLDAEFK(DABCYL)R-OH as substrate preincubated for 1 hr before addition of substrate measured after 1 hr
SH-SY5Y [9] = test: Neuroprotective activity in human APP695-transfected SH-SY5Y cells assessed as increase of glutathione level after 16 hrs (reference value: 17.79 +/- 1.59 nmol/mg); assay type: functional
SH-SY5Y [10] = test: Neuroprotective activity in human APP695-transfected SH-SY5Y cells assessed as inhibition of H2O2-induced increase of caspase-3 activity after 60 mins by fluorescence assay; assay type: functional
[11] = target: Amyloid-beta precursor protein (Homo sapiens) (UniProt P05067); test: Inhibition of beta amyloid (25 to 35) (unknown origin) disaggregation after 4 days by thioflavin-T fluorescence analysis
[12] = target: Amyloid-beta precursor protein (Homo sapiens) (UniProt P05067); test: Inhibition of beta amyloid (25 to 35) (unknown origin) aggregation after 4 days by thioflavin-T fluorescence analysis
SH-SY5Y [13] = test: Neuroprotective activity in human APP695-transfected SH-SY5Y cells assessed as inhibition of H2O2-induced ROS production after 60 mins by DCFA-DA assay; assay type: functional, cell-based; details: 1 h

Chain of Amyloid-beta precursor protein (Homo sapiens) (P05067 whole entry): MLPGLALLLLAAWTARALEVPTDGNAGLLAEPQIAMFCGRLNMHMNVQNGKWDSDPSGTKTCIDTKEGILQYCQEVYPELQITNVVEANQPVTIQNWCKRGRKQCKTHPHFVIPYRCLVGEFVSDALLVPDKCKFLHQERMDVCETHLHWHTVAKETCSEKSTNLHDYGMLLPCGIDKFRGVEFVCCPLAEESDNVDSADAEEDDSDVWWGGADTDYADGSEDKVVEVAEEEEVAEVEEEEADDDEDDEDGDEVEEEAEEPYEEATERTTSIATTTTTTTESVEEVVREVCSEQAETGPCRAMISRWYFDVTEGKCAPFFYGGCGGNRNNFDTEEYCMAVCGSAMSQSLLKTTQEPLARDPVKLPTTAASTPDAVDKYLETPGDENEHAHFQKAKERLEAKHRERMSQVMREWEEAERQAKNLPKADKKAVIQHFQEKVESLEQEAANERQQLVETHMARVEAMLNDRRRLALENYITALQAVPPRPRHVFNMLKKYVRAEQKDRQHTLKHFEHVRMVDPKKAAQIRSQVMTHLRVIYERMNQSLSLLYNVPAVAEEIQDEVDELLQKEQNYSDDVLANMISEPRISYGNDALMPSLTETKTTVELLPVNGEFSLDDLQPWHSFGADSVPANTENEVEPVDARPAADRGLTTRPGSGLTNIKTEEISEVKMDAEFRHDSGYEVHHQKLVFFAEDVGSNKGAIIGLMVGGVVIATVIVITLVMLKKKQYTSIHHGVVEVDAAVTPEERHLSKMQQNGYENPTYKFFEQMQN
Chain of Beta-secretase 1 (P56817 whole entry): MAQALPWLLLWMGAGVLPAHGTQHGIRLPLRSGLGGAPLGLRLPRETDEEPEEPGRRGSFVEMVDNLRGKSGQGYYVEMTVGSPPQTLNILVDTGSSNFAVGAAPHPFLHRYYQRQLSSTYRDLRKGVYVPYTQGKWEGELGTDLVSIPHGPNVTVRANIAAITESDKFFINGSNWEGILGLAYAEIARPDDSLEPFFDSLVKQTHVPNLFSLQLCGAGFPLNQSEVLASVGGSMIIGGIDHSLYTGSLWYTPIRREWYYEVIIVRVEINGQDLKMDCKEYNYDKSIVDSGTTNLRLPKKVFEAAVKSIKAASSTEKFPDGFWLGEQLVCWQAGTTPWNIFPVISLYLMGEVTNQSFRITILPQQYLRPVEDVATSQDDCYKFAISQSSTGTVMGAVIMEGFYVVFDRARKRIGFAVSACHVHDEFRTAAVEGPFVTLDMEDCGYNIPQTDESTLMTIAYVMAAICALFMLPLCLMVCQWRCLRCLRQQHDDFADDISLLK

| Compound | inhibition (SH-SY5Y [1]) | inhibition (Acetylcholinesterase) | Activity (SH-SY5Y [2]) | Activity (SH-SY5Y [3]) | Activity (SH-SY5Y [4]) | Activity [5] | Activity (SH-SY5Y [6]) | Activity (SH-SY5Y [7]) | inhibition at 5 µM (SH-SY5Y [8]) | IC50 (Beta-secretase 1) | Activity (SH-SY5Y [9]) | inhibition (INH) (SH-SY5Y [10]) | Activity [11] | Activity [12] | IC50 (SH-SY5Y [13]) |
| --- | --- | --- | --- | --- | --- | --- | --- | --- | --- | --- | --- | --- | --- | --- | --- |
| CN1CC(=O)OB(/C=C/c2ccccc2)OC(=O)C1 | inactive | inactive | 57.54 nmol/mg | 5.01 nmol/mg | 39.38 nmol/mg | Non-toxic | 6.11 nmol/mg | 41.96 nmol/mg | < 50% | 136 µM | 35.2 nmol/mg |  |  |  |  |
| OB(O)/C=C/c1ccc(F)cc1 | inactive | inactive | 52.64 nmol/mg | 4.58 nmol/mg | 27.42 nmol/mg | Non-toxic | 4.75 nmol/mg | 37.73 nmol/mg | < 50% |  | 28.19 nmol/mg | >50% |  |  |  |
| COc1cc(/C=C/B2OC(C)(C)C(C)(C)O2)cc(OC)c1 | inactive | inactive | 53.36 nmol/mg | 4.53 nmol/mg | 27.98 nmol/mg | Non-toxic | 4.49 nmol/mg | 48.18 nmol/mg | < 50% |  | 25.36 nmol/mg |  |  |  |  |
| OB(O)c1ccccc1 [PHENYLBORONIC ACID] | inactive | inactive | 52.78 nmol/mg | 4.85 nmol/mg | 28.01 nmol/mg | Non-toxic | 5.85 nmol/mg | 40.75 nmol/mg | < 50% |  | 28.62 nmol/mg |  |  |  |  |
| CCCCC/C=C/B(O)O | inactive | inactive | 59.21 nmol/mg | 3.94 nmol/mg | 27.22 nmol/mg | Non-toxic | 4.65 nmol/mg | 40.34 nmol/mg | < 50% |  | 27.35 nmol/mg |  |  |  |  |
| CC1(C)OB(/C=C/c2ccc(F)cc2F)OC1(C)C | inactive | inactive | 53.1 nmol/mg | 6.06 nmol/mg | 34.77 nmol/mg | Non-toxic | 5.33 nmol/mg | 39.76 nmol/mg | < 50% |  | 31.51 nmol/mg |  |  |  |  |
| OB(O)/C=C/c1ccccc1 [STYRYLBORONIC ACID] | inactive | inactive | 53.23 nmol/mg | 4.25 nmol/mg | 30.62 nmol/mg | Non-toxic | 4.6 nmol/mg | 42.22 nmol/mg |  |  | 21.84 nmol/mg |  | inactive | inactive | 8.08 µM |
| OB(O)c1ccc(C(F)(F)F)cc1 | inactive | inactive | 73.23 nmol/mg | 5.85 nmol/mg | 26.59 nmol/mg | Non-toxic | 5.76 nmol/mg | 45.36 nmol/mg | < 50% |  | 23.32 nmol/mg |  |  |  |  |
| OB(O)/C=C/c1ccc(C(F)(F)F)cc1 | inactive | inactive | 38.23 nmol/mg | 4.47 nmol/mg | 27.02 nmol/mg | Non-toxic | 4.3 nmol/mg | 35.67 nmol/mg |  |  | 31.48 nmol/mg | >50% | inactive | inactive | 2.85 µM |
| COc1cc(/C=C/B(O)O)cc(OC)c1 | inactive | inactive | 74.75 nmol/mg | 6.23 nmol/mg | 32.03 nmol/mg | Non-toxic | 4.7 nmol/mg | 42.79 nmol/mg | < 50% |  | 23.11 nmol/mg |  |  |  |  |
| CC1(C)OB(/C=C/c2cccc(C(F)(F)F)c2)OC1(C)C | inactive | inactive | 45.55 nmol/mg | 4.75 nmol/mg | 43.29 nmol/mg | Non-toxic | 5.53 nmol/mg | 44.03 nmol/mg | < 50% |  | 33.77 nmol/mg | >50% |  |  |  |
| COc1ccc(/C=C/B(O)O)cc1 | inactive | inactive | 58.76 nmol/mg | 6 nmol/mg | 26.05 nmol/mg | Non-toxic | 4.56 nmol/mg | 44.35 nmol/mg | < 50% |  | 26.2 nmol/mg |  |  |  |  |
| OB(O)/C=C/C1CCCCC1 | inactive | inactive | 45.38 nmol/mg | 6.03 nmol/mg | 35.58 nmol/mg | Non-toxic | 4.37 nmol/mg | 37.12 nmol/mg | < 50% |  | 24.06 nmol/mg | >50% |  |  |  |
| CC1(C)OB(/C=C/c2ccccc2)OC1(C)C | inactive | inactive | 51.76 nmol/mg | 4.89 nmol/mg | 37.04 nmol/mg | Non-toxic | 3.87 nmol/mg | 40.71 nmol/mg | < 50% |  | 34.74 nmol/mg |  |  |  |  |
